Experimental data as given in patent US7629341B2, “Human ADAM-10 inhibitors” (Symphony Evolution, Inc., priority 2003, dated 2009).

What was measured:
MMP-13 (collagenase-3) = MMP-13 (collagenase-3) (Homo sapiens, UniProt P45452); assay: In vitro metalloprotease inhibition, MMP-13; type: biochemical
[1] = target: T1, MMP-2 (72 kDa gelatinase, gelatinase A) (Homo sapiens, UniProt P08253); assay: In vitro metalloprotease inhibition, MMP-2; type: biochemical
T1 sequence (P08253 110-660): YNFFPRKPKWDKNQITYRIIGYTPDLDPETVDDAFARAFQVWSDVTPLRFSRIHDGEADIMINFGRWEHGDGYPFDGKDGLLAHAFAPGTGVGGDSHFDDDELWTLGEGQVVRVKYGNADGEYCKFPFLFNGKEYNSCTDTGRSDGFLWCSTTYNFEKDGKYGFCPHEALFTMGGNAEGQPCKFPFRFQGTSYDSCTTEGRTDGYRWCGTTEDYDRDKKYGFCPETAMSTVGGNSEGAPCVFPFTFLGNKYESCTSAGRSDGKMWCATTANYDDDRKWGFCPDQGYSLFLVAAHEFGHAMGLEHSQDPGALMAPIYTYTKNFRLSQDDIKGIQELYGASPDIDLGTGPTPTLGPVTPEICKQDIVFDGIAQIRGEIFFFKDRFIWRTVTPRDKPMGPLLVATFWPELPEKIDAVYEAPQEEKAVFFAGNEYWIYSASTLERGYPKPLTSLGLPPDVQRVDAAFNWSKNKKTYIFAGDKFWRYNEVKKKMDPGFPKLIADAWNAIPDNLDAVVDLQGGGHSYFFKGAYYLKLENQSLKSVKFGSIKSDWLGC

ADAM-10 = target: T2, ADAM-10 (UniProt O14672); assay: ADAM-10 enzyme assay, cleavage of a fluorogenic 10-residue peptide; type: biochemical, mouse or human (mADAM-10 or hADAM-10); conditions: in vitro;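 also: mouse or human ADAM-10 at 5 nM active enzyme, pH 8.0 HEPES buffer with CaCl2 and NP-40, compounds titrated 100 µM down to 0.5 nM, fluorescence read after 16 h at room temperature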
T2 sequence (O14672 1-748): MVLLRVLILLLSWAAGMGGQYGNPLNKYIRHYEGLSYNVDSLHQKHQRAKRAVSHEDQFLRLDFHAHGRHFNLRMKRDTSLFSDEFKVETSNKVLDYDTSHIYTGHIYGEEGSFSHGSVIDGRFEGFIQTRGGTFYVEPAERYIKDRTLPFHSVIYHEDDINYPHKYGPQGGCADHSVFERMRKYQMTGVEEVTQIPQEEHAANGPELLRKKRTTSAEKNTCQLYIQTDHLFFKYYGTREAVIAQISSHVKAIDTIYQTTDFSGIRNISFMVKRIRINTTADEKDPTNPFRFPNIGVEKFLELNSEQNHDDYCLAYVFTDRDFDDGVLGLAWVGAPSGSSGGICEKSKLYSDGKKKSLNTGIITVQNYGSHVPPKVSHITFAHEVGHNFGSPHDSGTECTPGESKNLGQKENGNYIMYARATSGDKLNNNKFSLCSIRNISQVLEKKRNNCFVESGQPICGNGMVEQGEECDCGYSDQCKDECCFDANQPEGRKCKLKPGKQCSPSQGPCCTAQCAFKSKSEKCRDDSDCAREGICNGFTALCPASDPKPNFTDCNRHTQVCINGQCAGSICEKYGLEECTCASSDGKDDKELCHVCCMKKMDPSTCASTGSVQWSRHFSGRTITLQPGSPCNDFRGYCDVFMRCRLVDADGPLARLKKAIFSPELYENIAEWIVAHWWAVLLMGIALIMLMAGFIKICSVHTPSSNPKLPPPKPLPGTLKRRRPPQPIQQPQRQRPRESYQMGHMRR
Protocol: mADAM-10 or hADAM-10 activity was measured as the ability to cleave a 10-residue peptide (DABCYL-Leu-Leu-Ala-Gln-Lys-*-LeuArg-Ser-Ser-Arg-EDANS). […] Enzyme was diluted to a final active concentration of 5 nM in Buffer A (50 mM HEPES 8.0, 100 mM NaCl, 1 mM CaCl2 and 0.01% NP-40). Serial dilutions for compounds were performed ranging from 100 μM to 0.5 nM using a Beckman Biomek 2000 in polypropylene plates (Greiner). […] This reaction was incubated for 16 hr at RT and fluorescence was read using identical conditions.

[2] = target: T3, MMP-1 (Fibroblast collagenase) (Homo sapiens, UniProt P03956); assay: In vitro metalloprotease inhibition, MMP-1; type: biochemical
T3 sequence (P03956 100-469): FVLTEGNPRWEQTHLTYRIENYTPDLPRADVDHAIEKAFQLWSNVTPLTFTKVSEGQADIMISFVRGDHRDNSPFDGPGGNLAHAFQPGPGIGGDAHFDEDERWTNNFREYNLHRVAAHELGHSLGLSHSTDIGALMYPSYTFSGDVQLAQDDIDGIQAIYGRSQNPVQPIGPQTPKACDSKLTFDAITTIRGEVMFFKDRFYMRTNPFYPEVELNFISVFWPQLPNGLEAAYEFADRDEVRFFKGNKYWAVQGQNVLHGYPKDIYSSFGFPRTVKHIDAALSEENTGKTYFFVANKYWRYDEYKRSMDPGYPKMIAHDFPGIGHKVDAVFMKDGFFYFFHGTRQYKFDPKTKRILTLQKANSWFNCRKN
Source text: (§1) Blank cells indicate lack of data only.

MMP-3 (Stromelysin-1) = MMP-3 (Stromelysin-1) (Homo sapiens, UniProt P08254); assay: In vitro metalloprotease inhibition, MMP-3; type: biochemical
Chain of MMP-3 (Stromelysin-1) (P08254 100-477, species assumed): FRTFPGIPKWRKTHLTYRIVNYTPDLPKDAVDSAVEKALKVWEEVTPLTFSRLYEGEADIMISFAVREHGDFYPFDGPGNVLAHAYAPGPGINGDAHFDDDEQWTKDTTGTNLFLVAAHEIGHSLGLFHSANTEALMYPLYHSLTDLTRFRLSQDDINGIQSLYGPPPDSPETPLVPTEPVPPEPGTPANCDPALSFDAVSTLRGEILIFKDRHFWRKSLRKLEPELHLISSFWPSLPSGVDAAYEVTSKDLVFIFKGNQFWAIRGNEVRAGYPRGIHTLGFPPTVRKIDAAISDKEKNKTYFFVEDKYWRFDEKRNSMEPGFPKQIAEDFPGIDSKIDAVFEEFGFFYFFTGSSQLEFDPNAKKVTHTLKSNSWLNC
Source text: as §1

Compound | IC50 (MMP-13 (collagenase-3)) [nM] | IC50 [1] [nM] | IC50 (ADAM-10) [nM] | IC50 [2] [nM] | IC50 (MMP-3 (Stromelysin-1)) [nM]
CN1CCN(C(=O)N2CCN(S(=O)(=O)c3cc(F)c(Oc4ccc(Cl)cc4)c(F)c3)[C@@H](C(=O)NO)C2)CC1 [Entry 16] | < 50 | < 50 | < 50 | > 20000 | 1000 to 20000
CN(C)c1ccc2c(S(=O)(=O)N3CCN(S(=O)(=O)c4cc(F)c(Oc5ccc(Cl)cc5)c(F)c4)[C@@H](C(=O)NO)C3)cccc2c1 [Entry 49] | < 50 | < 50 | 1000 to 20000 | > 20000 | 50 to 1000
O=C(NO)[C@H]1CN(C(=O)OCCN2CCCC2)CCN1S(=O)(=O)c1cc(F)c(Oc2ccc(Cl)cc2)c(F)c1 [Entry 18] | < 50 | < 50 | < 50 | > 20000 | 50 to 1000
O=C(NO)[C@H]1CN(S(=O)(=O)Cc2cc(Cl)cc(Cl)c2)CCN1S(=O)(=O)c1cc(F)c(Oc2ccc(Cl)cc2)c(F)c1 [Entry 61] | 1000 to 20000 | 1000 to 20000 | 50 to 1000 | > 20000 | > 20000
C=CCN1CCN(S(=O)(=O)c2cc(F)c(Oc3ccc(Cl)cc3)c(F)c2)[C@@H](C(=O)NO)C1 [Entry 62] | < 50 | < 50 | 50 to 1000 | > 20000 | 1000 to 20000
COCCN1CCN(S(=O)(=O)c2cc(F)c(Oc3ccc(Cl)cc3)c(F)c2)[C@@H](C(=O)NO)C1 [Entry 29] | < 50 | < 50 | < 50 | 1000 to 20000 | 50 to 1000
O=C(NO)[C@H]1CNCCN1S(=O)(=O)c1cc(F)c(Oc2ccc(F)cc2)c(F)c1 [Entry 11] | > 20000 | 50 to 1000 | 50 to 1000 | > 20000 | 1000 to 20000
O=C(NO)[C@H]1CN(C(=O)N2CCOCC2)CCN1S(=O)(=O)c1ccc(Oc2ccc(F)cc2)c(F)c1 [Entry 8] | < 50 | < 50 | < 50 | 50 to 1000 | < 50
COCCOC(=O)N1CCN(S(=O)(=O)c2ccc(Oc3ccc(F)cc3)nc2)[C@@H](C(=O)NO)C1 [Entry 65] | < 50 | < 50 | 50 to 1000 | < 50 | < 50
O=C(NO)[C@H]1CN(CC(=O)N2CCCC2)CCN1S(=O)(=O)c1cc(F)c(Oc2ccc(Cl)cc2)c(F)c1 [Entry 21] | 50 to 1000 | < 50 | < 50 | > 20000 | 1000 to 20000
CN(C)c1cccc2c(S(=O)(=O)N3CCN(S(=O)(=O)c4cc(F)c(Oc5ccc(Cl)cc5)c(F)c4)[C@@H](C(=O)NO)C3)cccc12 [Entry 60] | < 50 | < 50 | 50 to 1000 | > 20000 | 1000 to 20000
O=C(NO)[C@H]1CN(C(=O)N2CCOCC2)CCN1S(=O)(=O)c1cc(F)c(Oc2ccc(F)cc2)c(F)c1 [Entry 12] | < 50 | < 50 | < 50 | 1000 to 20000 | 50 to 1000
COCCOC(=O)N1CCN(S(=O)(=O)c2ccc(-c3cccc(F)c3)nc2)[C@@H](C(=O)NO)C1 [Entry 66] | < 50 | < 50 | < 50 | 50 to 1000 | < 50
CCCCCCC(=O)N1CCN(S(=O)(=O)c2cc(F)c(Oc3ccc(Cl)cc3)c(F)c2)[C@@H](C(=O)NO)C1 [Entry 43] | < 50 | < 50 | < 50 | > 20000 | 50 to 1000
O=C(O)CN1CCN(S(=O)(=O)c2cc(F)c(Oc3ccc(Cl)cc3)c(F)c2)[C@@H](C(=O)NO)C1 [Entry 63] | 50 to 1000 | 50 to 1000 | 50 to 1000 | > 20000 | 1000 to 20000
